Source: ChEMBL document CHEMBL4513135, “CO-ADD screening of IQOG CSIS (Spain) compounds”
≈ marks a conversion by molar mass, not a printed value.

Experiments:
HEK293 = assay: cells; assay type: functional; conditions: Homo sapiens, ATCC CRL1573, HEK293; ASSAY_TEST Inhibition of Cell Viability; detection method Resazurin; Fluorescence (ex560/em590); MEDIA DMEM with 10% FBS; plate type 384well; TC; CORNING #3712; time 18 hr
Staphylococcus aureus = assay: microbe, parasite or virus in culture; conditions: ATCC 43300, 18 h, ASSAY_TEST Inhibition of Bacterial Growth, detection method Absorption (OD600), MEDIA CAMHB, plate type 384well, NBS, CORNING #3640
Escherichia coli = assay: microbe, parasite or virus in culture; conditions: ATCC 25922, 18 h, ASSAY_TEST Inhibition of Bacterial Growth, detection method Absorption (OD600), MEDIA CAMHB, plate type 384well, NBS, CORNING #3640
Klebsiella pneumoniae = assay: microbe, parasite or virus in culture; conditions: ATCC 700603, 18 h, ASSAY_TEST Inhibition of Bacterial Growth, detection method Absorption (OD600), MEDIA CAMHB, plate type 384well, NBS, CORNING #3640
Pseudomonas aeruginosa = assay: microbe, parasite or virus in culture; conditions: ATCC 27853, 18 h, ASSAY_TEST Inhibition of Bacterial Growth, detection method Absorption (OD600), MEDIA CAMHB, plate type 384well, NBS, CORNING #3640
Acinetobacter baumannii = assay: microbe, parasite or virus in culture; conditions: ATCC 19606, 18 h, ASSAY_TEST Inhibition of Bacterial Growth, detection method Absorption (OD600), MEDIA CAMHB, plate type 384well, NBS, CORNING #3640
Candida albicans = assay: microbe, parasite or virus in culture; conditions: ATCC 90028, ASSAY_TEST Inhibition of Fungal Growth, detection method Absorption (OD530), plate type 384well, NBS, CORNING #3640

SMILES | CC50 (HEK293) [µg/mL] | MIC (Cryptococcus neoformans) [µg/mL] | MIC (Staphylococcus aureus) [µg/mL] | MIC (Escherichia coli) [µg/mL] | MIC (Klebsiella pneumoniae) [µg/mL] | MIC (Pseudomonas aeruginosa) [µg/mL] | MIC (Acinetobacter baumannii) [µg/mL] | MIC (Candida albicans) [µg/mL]
OCc1ccc(O)c2ncccc12 | 17.3 (≈ 98.8 µM) | 16 (≈ 91.3 µM) | > 32 | > 32 | > 32 | 32 (≈ 183 µM) | > 32 | 16 (≈ 91.3 µM)
C=C=CCN(C)Cc1cc2cc(OCc3ccccc3)ccc2n1C.O=C(O)C(=O)O | 1.61 | > 32 | > 32 | > 32 | > 32 | > 32 | > 32 | > 32
C#CCN(C)Cc1cc2cc(OCc3ccccc3)ccc2[nH]1.O=C(O)C(=O)O | > 32 | > 32 | > 32 | > 32 | > 32 | > 32 | > 32 | 32
N#CC1=C(N)Oc2ccc3ccccc3c2C1c1ccc([N+](=O)[O-])cc1 (centres undefined) | 1.88 (≈ 5.48 µM) | > 32 | > 32 | > 32 | > 32 | > 32 | > 32 | > 32
Brc1nc(Br)c(Br)[nH]1 | > 32 | > 32 | > 32 | > 32 | > 32 | > 32 | > 32 | > 32
CCOC(=O)C1=C(C)Nc2nc3c(c(N)c2C1c1ccccc1OC)CCCC3 (centres undefined) |  | > 32 | 32 (≈ 81.3 µM) | > 32 | > 32 | > 32 | > 32 | > 32
Cc1ccc2nc(Cl)c(/C=N/Cc3ccccc3)cc2c1 | > 32 | > 32 | > 32 | > 32 | > 32 | > 32 | > 32 | > 32
COc1ccc2[nH]c3nc4c(c(N)c3c2c1)CCCC4 | 15 (≈ 56.1 µM) | 32 (≈ 120 µM) | > 32 | > 32 | > 32 | 32 (≈ 120 µM) | > 32 | > 32
C#CCN(C)Cc1cc2cc(OCCCCC3CCN(Cc4ccccc4)CC3)ccc2n1C.Cl | > 32 | > 32 | > 32 | > 32 | > 32 | > 32 | > 32 | > 32
Cl.Nc1c2c(nc3[nH]c4ccccc4c13)CCCC2 | 4.74 | > 32 | > 32 | > 32 | > 32 | 16 | > 32 | > 32
COc1nc(Cl)c(C#N)cc1C#N | 0.56 (≈ 2.89 µM) | > 32 | > 32 | > 32 | > 32 | > 32 | > 32 | 16 (≈ 82.6 µM)
Nc1c2c(nc3c1CC(c1ccccc1)C(=O)N3)CCCC2 (centres undefined) | 11.3 (≈ 38.5 µM) | > 32 | > 32 | > 32 | > 32 | > 32 | > 32 | > 32
O=C(CI)NCc1ccccc1 | 8.25 (≈ 30 µM) | 16 (≈ 58.2 µM) | > 32 | > 32 | > 32 | > 32 | > 32 | > 32
CCOC(=O)C1=C(C)Nc2nc3c(c(N)c2C1c1ccccc1OC)CCCC3.Cl (centres undefined) |  |  | 32 | > 32 | > 32 | > 32 | > 32 | > 32
C#CCN(C)c1nc(NCCCCC2CCN(Cc3ccccc3)CC2)c(C#N)c(-c2ccccc2)c1C#N | 3.73 (≈ 7.22 µM) | 8 (≈ 15.5 µM) | > 32 | > 32 | > 32 | > 32 | > 32 | 32 (≈ 61.9 µM)
CC1CC(=O)Nc2c1c(Br)nc1nc3c(c(N)c21)CCCC3 (centres undefined) | 4.01 (≈ 11.1 µM) | > 32 | > 32 | > 32 | > 32 | > 32 | > 32 | > 32
C#CCNc1nc(NCCCC2CCN(Cc3ccccc3)CC2)c(C#N)c(-c2ccccc2)c1C#N | 16 (≈ 32.7 µM) | 32 (≈ 65.5 µM) | > 32 | > 32 | > 32 | > 32 | > 32 | > 32

SMILES | CC50 (HEK293) [µg/mL] | MIC (Cryptococcus neoformans) [µg/mL] | MIC (Staphylococcus aureus) [µg/mL] | MIC (Escherichia coli) [µg/mL] | MIC (Klebsiella pneumoniae) [µg/mL] | MIC (Pseudomonas aeruginosa) [µg/mL] | MIC (Acinetobacter baumannii) [µg/mL] | MIC (Candida albicans) [µg/mL]
C#CCN(C)Cc1cc2cc(OCCCC3CCN(Cc4ccccc4)CC3)ccc2[nH]1.O=C(O)C(=O)O | 13.4 | > 32 | > 32 | > 32 | > 32 | > 32 | > 32 | > 32
C#CCNc1nc(NCCC2CCN(Cc3ccccc3)CC2)c(C#N)c(-c2ccccc2)c1C#N | 11.3 (≈ 23.8 µM) | > 32 | > 32 | > 32 | > 32 | > 32 | > 32 | > 32
N#C/C(=C\c1ccc([N+](=O)[O-])cc1)C(=O)c1ccccc1 | > 32 | 32 (≈ 115 µM) | > 32 | > 32 | > 32 | > 32 | > 32 | > 32
Cc1ccc2nc(Cl)c(/C=N/O)cc2c1 | > 32 | > 32 | > 32 | > 32 | > 32 | > 32 | > 32 | > 32
C#CCN(C)c1nc(N)c(C#N)c(-c2ccccc2)c1C#N | > 32 | > 32 | > 32 | > 32 | > 32 | > 32 | > 32 | > 32
Nc1n[nH]c2nc3[nH]nc(N)c3c(-c3ccccc3)c12 | 8.23 (≈ 31 µM) | > 32 | > 32 | > 32 | > 32 | > 32 | > 32 | > 32
N#CC1=C(N)Oc2c(ccc3ccccc23)C1c1ccccc1[N+](=O)[O-] (centres undefined) | > 32 | > 32 | > 32 | > 32 | > 32 | > 32 | > 32 | > 32
C#CCN(C)c1nc(NCCCCC2CCN(Cc3ccccc3)CC2)c(C#N)c(-c2ccccc2)c1C#N.Cl | 4.12 | 16 | > 32 | > 32 | > 32 | > 32 | > 32 | > 32
CC(C)(C)OC(=O)n1c(COC(=O)NC2CCN(Cc3ccccc3)CC2)cc2cc(OCc3ccccc3)ccc21.O=C(O)C(=O)O | 9.19 | 16 | > 32 | > 32 | > 32 | > 32 | > 32 | 32
CN(Cc1cn(-c2ccccc2)nn1)Cc1cc2cc(OCCCC3CCN(Cc4ccccc4)CC3)ccc2n1C.Cl | 3.55 | > 32 | > 32 | > 32 | > 32 | > 32 | > 32 | > 32
C#CCNc1nc(Cl)c(C#N)cc1C#N | 22.4 (≈ 103 µM) | > 32 | > 32 | > 32 | > 32 | > 32 | > 32 | 32 (≈ 148 µM)
C#CCNc1ccc(Cl)cn1 | > 32 | > 32 | > 32 | > 32 | > 32 | > 32 | > 32 | > 32
C#CCNc1nc(NCCCCC2CCN(Cc3ccccc3)CC2)c(C#N)c(-c2ccccc2)c1C#N | 3.46 (≈ 6.88 µM) | > 32 | > 32 | > 32 | > 32 | > 32 | > 32 | > 32
Cc1ccc2nc(Cl)c(C=O)cc2c1 | 24.1 (≈ 117 µM) | 32 (≈ 156 µM) | > 32 | > 32 | > 32 | > 32 | > 32 | > 32
C#CCN(C)Cc1cc2cc(OCCCC3CCNCC3)ccc2n1C.C#CCN(C)Cc1cc2cc(OCCCC3CCNCC3)ccc2n1C.Cl.Cl.Cl.Cl.O | 17.2 | > 32 | > 32 | > 32 | > 32 | > 32 | > 32 | > 32
N#CC1(Br)C(=N)Oc2ccc3ccccc3c2C1c1ccccc1[N+](=O)[O-] (centres undefined) | 5.83 (≈ 13.8 µM) | > 32 | > 32 | > 32 | > 32 | > 32 | > 32 | > 32
Cl.ClCc1ccncc1 | > 32 | > 32 | > 32 | > 32 | > 32 | > 32 | > 32 | 32
